Experimental data: PMC8513526, “An Advanced Automated Patch Clamp Protocol Design to Investigate Drug—Ion Channel Binding Dynamics” (Frontiers in Pharmacology, 2021)
Like-named read-outs stand apart in the source and are kept apart here.

Legend:
Type in all cases: cell-based
rNaV1.4 [1] = target: T1, rNaV1.4 (Rattus norvegicus, UniProt P15390); experiment: automated patch clamp (IonFlux Mercury ensemble recording; Port-a-Patch single-cell validation), […]
T1 construct: gene Scn4a; recombinant rNaV1.4 channel stably expressed in HEK 293 cells

rNaV1.4 [2] = target: T1, rNaV1.4; experiment: automated patch clamp (IonFlux Mercury), […]; inhibition of pulse #[…] peak current at […]
rNaV1.4 [3] = target: T1, rNaV1.4; experiment: automated patch clamp (IonFlux Mercury ensemble recording; Port-a-Patch single-cell validation), […]; remark: listed apart in the source
rNaV1.4 [4] = target: T1, rNaV1.4; experiment: automated patch clamp (IonFlux Mercury), […]

T1 sequence (P15390 whole entry): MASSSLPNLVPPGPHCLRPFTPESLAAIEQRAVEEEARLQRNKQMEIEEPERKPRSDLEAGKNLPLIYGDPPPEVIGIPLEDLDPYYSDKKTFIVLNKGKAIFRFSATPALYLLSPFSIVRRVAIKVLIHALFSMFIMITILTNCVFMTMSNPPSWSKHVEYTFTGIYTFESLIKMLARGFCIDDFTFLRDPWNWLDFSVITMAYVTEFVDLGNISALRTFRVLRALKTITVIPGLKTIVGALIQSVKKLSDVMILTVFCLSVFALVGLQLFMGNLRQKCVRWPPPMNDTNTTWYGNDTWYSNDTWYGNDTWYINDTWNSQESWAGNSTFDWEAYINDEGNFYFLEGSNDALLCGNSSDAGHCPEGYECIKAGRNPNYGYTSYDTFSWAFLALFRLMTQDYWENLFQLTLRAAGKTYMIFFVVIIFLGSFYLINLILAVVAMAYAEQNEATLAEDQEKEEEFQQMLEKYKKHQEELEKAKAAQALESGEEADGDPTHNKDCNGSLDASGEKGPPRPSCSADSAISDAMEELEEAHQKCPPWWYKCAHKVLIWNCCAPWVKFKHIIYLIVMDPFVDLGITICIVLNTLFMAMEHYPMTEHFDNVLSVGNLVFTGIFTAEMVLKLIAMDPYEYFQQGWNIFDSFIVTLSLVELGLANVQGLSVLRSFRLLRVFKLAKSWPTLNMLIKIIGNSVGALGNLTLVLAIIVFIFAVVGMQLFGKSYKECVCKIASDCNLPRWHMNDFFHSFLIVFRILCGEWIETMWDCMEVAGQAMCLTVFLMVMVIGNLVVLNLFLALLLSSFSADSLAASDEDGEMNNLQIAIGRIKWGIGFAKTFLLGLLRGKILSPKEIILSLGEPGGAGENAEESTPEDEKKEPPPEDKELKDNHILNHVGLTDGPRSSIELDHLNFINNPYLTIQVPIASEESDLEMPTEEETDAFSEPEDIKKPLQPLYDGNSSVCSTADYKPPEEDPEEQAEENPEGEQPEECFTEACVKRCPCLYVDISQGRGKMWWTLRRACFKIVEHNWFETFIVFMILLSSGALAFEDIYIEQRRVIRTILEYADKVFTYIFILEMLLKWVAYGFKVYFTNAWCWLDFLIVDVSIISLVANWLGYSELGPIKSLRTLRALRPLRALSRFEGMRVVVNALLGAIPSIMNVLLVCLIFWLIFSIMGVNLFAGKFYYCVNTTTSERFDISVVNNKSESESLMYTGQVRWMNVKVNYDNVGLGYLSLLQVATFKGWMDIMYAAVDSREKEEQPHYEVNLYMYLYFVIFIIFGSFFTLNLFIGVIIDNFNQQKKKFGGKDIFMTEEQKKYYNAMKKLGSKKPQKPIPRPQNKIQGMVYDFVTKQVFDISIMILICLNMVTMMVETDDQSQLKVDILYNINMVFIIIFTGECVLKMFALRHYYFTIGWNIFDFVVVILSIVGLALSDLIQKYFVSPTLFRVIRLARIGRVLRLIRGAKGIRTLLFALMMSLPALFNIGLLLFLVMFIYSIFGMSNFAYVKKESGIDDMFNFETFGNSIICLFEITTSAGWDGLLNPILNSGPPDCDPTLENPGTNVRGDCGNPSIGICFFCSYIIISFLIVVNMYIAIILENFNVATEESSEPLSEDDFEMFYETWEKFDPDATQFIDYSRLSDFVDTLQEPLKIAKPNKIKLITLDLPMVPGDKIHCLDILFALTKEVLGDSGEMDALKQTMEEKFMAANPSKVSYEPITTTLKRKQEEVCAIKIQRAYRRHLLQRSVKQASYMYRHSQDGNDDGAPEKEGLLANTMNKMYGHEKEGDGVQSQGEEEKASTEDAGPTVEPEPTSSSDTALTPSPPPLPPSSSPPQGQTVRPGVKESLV

## CCN(CC)CC(=O)Nc1c(C)cccc1C [lidocaine]
rNaV1.4 [1]
  automated patch clamp (IonFlux Mercury ensemble recording); Port-a-Patch single-c: lidocaine caused a slowing of the fast time constant of recovery, which was moderate at lower concentrations

## CN(C)CCCN1c2ccccc2CCc2ccccc21 [imipramine]
rNaV1.4 [2]
  inhibition at 30 µM: 50 to 55%

## Nc1nc2ccc(OC(F)(F)F)cc2s1 [riluzole]
rNaV1.4 [3]
  automated patch clamp (IonFlux Mercury ensemble recording); Port-a-Patch single-c: riluzole caused no change in either the contribution or the value of the slow time constant but caused a radical

## CN(C)CCCN1c2ccccc2Sc2ccc(Cl)cc21 [chlorpromazine]
rNaV1.4 [4]
  automated patch clamp (IonFlux Mercury), 10 and 30 μM: inhibition by chlorpromazine was not much relieved throughout the whole 17-pulse sweep
